This is an account of results in patent publication US11897865B2, “ABHD12 inhibitors and methods of making and using same” (THE SCRIPPS RESEARCH INSTITUTE, priority 2018, dated 2024).

pIC50: −log10 of the molar value.

Experiment [1] deals with T1, ABHD12 (Mus musculus, UniProt Q99LR1).
T1 construct: from tissue; host or cells: brain membrane proteome
T1 sequence (Q99LR1 1-398): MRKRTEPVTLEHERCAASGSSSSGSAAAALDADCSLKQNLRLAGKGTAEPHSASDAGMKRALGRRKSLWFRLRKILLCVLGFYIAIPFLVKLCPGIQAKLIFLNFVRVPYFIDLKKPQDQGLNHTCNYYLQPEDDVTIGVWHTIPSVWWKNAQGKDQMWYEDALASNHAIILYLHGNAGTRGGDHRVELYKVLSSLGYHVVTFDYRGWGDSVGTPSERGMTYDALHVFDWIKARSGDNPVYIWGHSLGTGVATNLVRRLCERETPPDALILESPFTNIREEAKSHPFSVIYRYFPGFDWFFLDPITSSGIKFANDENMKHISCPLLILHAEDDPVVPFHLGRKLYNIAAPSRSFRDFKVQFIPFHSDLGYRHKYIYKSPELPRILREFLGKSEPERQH
In words: Gel-based competitive ABPP, JJH350 probe vs brain membrane proteome. It is filed as biochemical. To be noted: for inhibition at 10 µM: 10 μM compound, read-out: % Inhibition @ 10 μM (ABPP gel_JJH350 probe vs brain mem); for pIC50: read-out: IC50 (ABPP gel_JJH350 probe vs brain mem). The method in brief: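 Mouse membrane proteome (1 mg/mL) labeled 45 min at 37 °C with alkyne probe JJH350 (2 μM final) or FP-Rh (1 μM final). JJH350 targets were visualized after CuAAC with rhodamine-azide (1 h, room temperature), SDS-PAGE (10%) and in-gel fluorescence scanning, with band intensities quantified.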

The target in experiment [2] is T2, ABHD12 (Homo sapiens, UniProt Q8N2K0).
T2 construct: expressed in transfected cells; host or cells: HEK293T
T2 sequence (Q8N2K0 1-398): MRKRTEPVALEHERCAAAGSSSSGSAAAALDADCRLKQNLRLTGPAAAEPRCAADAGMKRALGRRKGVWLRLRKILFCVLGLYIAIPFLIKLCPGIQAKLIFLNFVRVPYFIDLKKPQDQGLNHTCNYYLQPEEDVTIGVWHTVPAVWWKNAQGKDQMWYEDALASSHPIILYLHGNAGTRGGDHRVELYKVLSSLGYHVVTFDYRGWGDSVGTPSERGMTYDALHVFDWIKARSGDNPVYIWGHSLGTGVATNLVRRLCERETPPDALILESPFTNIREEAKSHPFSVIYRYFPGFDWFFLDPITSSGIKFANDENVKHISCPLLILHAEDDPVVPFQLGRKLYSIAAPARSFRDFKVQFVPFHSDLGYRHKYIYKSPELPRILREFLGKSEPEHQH
In words: Lyso-PS hydrolysis assay (substrate-based), ABHD12-overexpressing HEK293T membrane lysate. Format: biochemical. To be noted: 17:1 lyso-PS substrate; ABHD12-overexpressed HEK lysate; read-out: IC50 (Substrate-based assay_ABHD12-overexpressed HEK lysate). The protocol: Lyso-PS Hydrolysis Assay:
The lyso-PS lipase activity of ABHD12 was determined as previously described (Blankman, J. L., Long, J. Z., Trauger, S. A., Siuzdak, G. & Cravatt, B. F. ABHD12 controls brain lysophosphatidylserine pathways that are deregulated in a murine model of the neurodegenerative disease PHARC. Proc. Natl. Acad. Sci. U. S. A. 110, 1500-1505, doi:10.1073/pnas.1217121110 (2013)) with some minor modifications. The proteome concentrations were adjusted to 0.25 mg/mL (ABHD12-overexpressing HEK293T membrane) or 0.5 mg/mL (mouse brain membrane) in Dulbecco's phosphate-buffered saline (DPBS) (80 μL/reaction). 20 μL of 500 μM 17:1 lyso-PS in DPBS was added to each reaction (100 μM final concentration) and incubated at 37° C. After 30 min, the reaction was quenched with 400 μL of 2:1 CHCl3/MeOH (v/v) with 1 nmol 15:0 FFA as an internal standard. The mixture was vortexed and centrifuged at 1,400× g to separate the aqueous and organic phase. The organic phase was analyzed by LC-MS (1200 LC/MSD, Agilent Technologies). The separation of the analyte was achieved using a 50 mm×4.6 mm 5 μm Gemini C18 column (Phenomenex) coupled to a guard column (Gemini: C18: 4×3 mm). The LC solvents were as follows: buffer A, […] (95:5, v/v) with 0.1% NH4OH (v/v); and buffer B, iPrOH:MeOH:H2O (60:3 5:5, v/v/v) with 0.1% NH4OH (v/v). The LC method consisted of 0.1 mL/min 20% buffer B for 1.0 min, 0.4 ml/min isocratic mode of 100% buffer B over 7 min and equilibration with 0.5 mL/min 100% buffer A for 3 min. The MS analyses were performed using an electrospray ionization source (ESI) in negative ion mode to measure product formation. MS data were acquired in selected ion monitoring mode at m/z 267.20 for 17:1 FFA and m/z 241.20 for 15:0 FFA.

Regarding `FC(F)(F)Oc1ccc(Oc2ccnc(N3CCC(NC(=S)Nc4cccnc4)CC3)c2)cc1` [Example 2, 1-(Pyridin-3-yl)-3-(1-(4-(4-(trifluoromethoxy)phenoxy)pyridin-2-yl)piperidin-4-yl)thiourea], the inhibition at 10 µM at ABHD12 [1] is no less than 75%. The pIC50 on ABHD12 [1] and on ABHD12 [2] was 6.00 to 7.00 each time.
Regarding `FC(F)(F)c1cccnc1N1CCC(NC(=S)Nc2cccnc2)CC1` [Example 16, 1-(Pyridin-3-yl)-3-(1-(3-(trifluoromethyl)pyridin-2-yl)piperidin-4-yl)thiourea], on ABHD12 [1], the inhibition at 10 µM lay within 25 to 50% and the pIC50 was 4.60 to 6.00. For the same molecule, the pIC50 on ABHD12 [2] is 4.60 to 6.00.
Consider `FC(F)(F)c1cc(N2CCC(NC(=S)Nc3cccnc3)CC2)ncc1Cl` [Example 25, 1-(1-(5-Chloro-4-(trifluoromethyl)pyridin-2-yl)piperidin-4-yl)-3-(pyridin-3-yl)thiourea], for which, on ABHD12 [1], the inhibition at 10 µM is no less than 75% and the pIC50 is 4.60 to 6.00. The pIC50 at ABHD12 [2] is 4.60 to 6.00.
`FC(F)(F)c1ccnc(N2CCC(NC(=S)Nc3cccnc3)CC2)c1Cl` [Example 26, 1-(1-(3-Chloro-4-(trifluoromethyl)pyridin-2-yl)piperidin-4-yl)-3-(pyridin-3-yl)thiourea]: at ABHD12 [1], the inhibition at 10 µM is no less than 75% and the pIC50 was 6.00 to 7.00. In addition, the negative logarithm of the IC50 (pIC50) on ABHD12 [2] was 6.00 to 7.00.
For `FC(F)(F)Oc1ccc(Oc2ccnc(N3CCC(NC(=S)Nc4cccnc4)CC3)c2Cl)cc1` [Example 3, 1-(1-(3-chloro-4-(4-(trifluoromethoxy)phenoxy)pyridin-2-yl)piperidin-4-yl)-3-(pyridin-3-yl)thiourea], on ABHD12 [1], the inhibition at 10 µM is no less than 75% and the negative-log IC50 (pIC50) was no less than 7.00. Moreover, on ABHD12 [2], the negative-log IC50 (pIC50) is no less than 7.00.
Turning to `S=C(Nc1cccnc1)NC1CCN(c2cc(Oc3ccccc3)ccn2)CC1` [Example 40, 1-(1-(4-Phenoxypyridin-2-yl)piperidin-4-yl)-3-(pyridin-3-yl)thiourea], on ABHD12 [1], the inhibition at 10 µM is no less than 75% and the negative-log IC50 (pIC50) was 4.60 to 6.00. Besides, at ABHD12 [2], the negative-log IC50 (pIC50) is 4.60 to 6.00.
Turning to `FC(F)(F)Oc1cccc(Oc2ccnc(N3CCC(NC(=S)Nc4cccnc4)CC3)c2Cl)c1` [Example 66, 1-(1-(3-Chloro-4-(3-(trifluoromethoxy)phenoxy)pyridin-2-yl)piperidin-4-yl)-3-(pyridin-3-yl)thiourea], the pIC50 on ABHD12 [1] was no less than 7.00; on ABHD12 [2] it was 6.00 to 7.00.
As to `FC(F)(F)c1ccnc(N2CCC(NC(=S)Nc3cccnc3)CC2)c1` [Example 15, 1-(Pyridin-3-yl)-3-(1-(4-(trifluoromethyl)pyridin-2-yl)piperidin-4-yl)thiourea], on ABHD12 [1], the inhibition at 10 µM was no less than 75% and the pIC50 was 6.00 to 7.00. In addition, the negative-log IC50 (pIC50) at ABHD12 [2] is 4.60 to 6.00.
The like results for `S=C(Nc1cccnc1)NC1CCN(c2cc(Cl)ccn2)CC1` [Example 28, 1-(1-(4-Chloropyridin-2-yl)piperidin-4-yl)-3-(pyridin-3-yl)thiourea] were, in that order, no less than 75%, 4.60 to 6.00 and 4.60 to 6.00.
Consider `FC(F)(F)Oc1ccc(Oc2ccnc(N3CCC(NC(=S)Nc4cccnc4)CC3)c2)cc1Cl` [Example 54, 1-(1-(4-(3-Chloro-4-(trifluoromethoxy)phenoxy)pyridin-2-yl)piperidin-4-yl)-3-(pyridin-3-yl)thiourea], for which, on ABHD12 [1], the inhibition at 10 µM is no less than 75%. Besides, the pIC50 on ABHD12 [2] was 6.00 to 7.00.
Consider `FC(F)(F)c1cccc(N2CCC(NC(=S)Nc3cccnc3)CC2)n1` [Example 29, 1-(Pyridin-3-yl)-3-(1-(6-(trifluoromethyl)pyridin-2-yl)piperidin-4-yl)thiourea], for which, on ABHD12 [1], the inhibition at 10 µM is no less than 75% and the pIC50 is 6.00 to 7.00. For the same molecule, the negative-log IC50 (pIC50) at ABHD12 [2] was 6.00 to 7.00.
As for `FC(F)(F)c1cc(Cl)nc(N2CCC(NC(=S)Nc3cccnc3)CC2)c1` [Example 27, 1-(1-(6-Chloro-4-(trifluoromethyl)pyridin-2-yl)piperidin-4-yl)-3-(pyridin-3-yl)thiourea], at ABHD12 [1], the inhibition at 10 µM was no less than 75% and the negative logarithm of the IC50 (pIC50) is 6.00 to 7.00. For the same molecule, the negative-log IC50 (pIC50) at ABHD12 [2] was 6.00 to 7.00.
Consider `FC(F)(F)Oc1ccc(Oc2ccnc(N3CCC(NC(=S)Nc4cccnc4)CC3)c2Cl)cc1Cl` [Example 65, 1-(1-(3-Chloro-4-(3-chloro-4-(trifluoromethoxy)phenoxy)pyridin-2-yl)piperidin-4-yl)-3-(pyridin-3-yl)thiourea], for which the pIC50 at ABHD12 [1] and on ABHD12 [2] was no less than 7.00 in each case.
In the case of `FC(F)(F)c1ccc(Oc2ccnc(N3CCC(NC(=S)Nc4cccnc4)CC3)c2)cc1` [Example 51, 1-(Pyridin-3-yl)-3-(1-(4-(4-(trifluoromethyl)phenoxy)pyridin-2-yl)piperidin-4-yl)thiourea], on ABHD12 [1], the inhibition at 10 µM is no less than 75% and the negative-log IC50 (pIC50) was 6.00 to 7.00. Also, the pIC50 on ABHD12 [2] is 6.00 to 7.00.
In the case of `N#Cc1c(Oc2ccc(OC(F)(F)F)cc2)ccnc1N1CCC(NC(=S)Nc2cccnc2)CC1` [Example 71, 1-(1-(3-Cyano-4-(4-(trifluoromethoxy)phenoxy)pyridin-2-yl)piperidin-4-yl)-3-(pyridin-3-yl)thiourea], the pIC50 at ABHD12 [1] and at ABHD12 [2] was 6.00 to 7.00 in each case.
In the case of `FC(F)(F)Oc1ccccc1Oc1ccnc(N2CCC(NC(=S)Nc3cccnc3)CC2)c1Cl` [Example 67, 1-(1-(3-Chloro-4-(2-(trifluoromethoxy)phenoxy)pyridin-2-yl)piperidin-4-yl)-3-(pyridin-3-yl)thiourea], the pIC50 at ABHD12 [1] was no less than 7.00; at ABHD12 [2] it was 6.00 to 7.00.

The term inhibition denotes how much of the control response was suppressed. The term pIC50 denotes −log10 of the IC50, conventionally taken in molar units.
